Laboratory results taken from the NIST ThermoML archive (doi:10.1016/j.jct.2015.09.029).

Experiment: mn = molality of the nth substance listed, in mol/kg
Conditions: 100 kPa, Liquid; for viscosity: Capillary tube (Ostwald / Ubbelohde) method; for speed of sound: Frequency=2 MHz, Linear variable-path acoustic interferometer; for mass density: Vibrating tube method

CCCC[P+](C)(CCCC)CCCC.COS(=O)(=O)[O-] [tributylmethylphosphonium methyl sulfate] + O
Conditions	mass density [kg/m3]	speed of sound [m/s]	viscosity [mPa·s]
298.15 K, m1 = 0.0282	997.65	1504.7	0.9199
298.15 K, m1 = 0.0438	997.98	1507.9	0.9362
298.15 K, m1 = 0.0564	998.25	1510.3	0.9494
298.15 K, m1 = 0.0658	998.45	1512.1	0.9592
298.15 K, m1 = 0.0847	998.86	1515.5	0.9789
298.15 K, m1 = 0.113	999.46	1520.9	1.009
298.15 K, m1 = 0.174	1000.77	1533.3	1.073
298.15 K, m1 = 0.2336	1002.05	1545.1	1.135
298.15 K, m1 = 0.2813	1003.07	1554.3	1.185
303.15 K, m1 = 0.0282	996.22	1517.7	0.8225
303.15 K, m1 = 0.0438	996.54	1521.6	0.8362
303.15 K, m1 = 0.0564	996.8	1524.6	0.8473
303.15 K, m1 = 0.0658	996.99	1526.7	0.8555
303.15 K, m1 = 0.0847	997.38	1530.7	0.8722
303.15 K, m1 = 0.113	997.96	1536.2	0.8971
303.15 K, m1 = 0.174	999.21	1547.8	0.951
303.15 K, m1 = 0.2336	1000.44	1558.6	1.004
303.15 K, m1 = 0.2813	1001.42	1566.7	1.046
308.15 K, m1 = 0.0282	994.58	1527.2	0.7395
308.15 K, m1 = 0.0438	994.89	1530.9	0.7505
308.15 K, m1 = 0.0564	995.14	1533.7	0.7595
308.15 K, m1 = 0.0658	995.32	1535.9	0.7662
308.15 K, m1 = 0.0847	995.7	1539.9	0.7796
308.15 K, m1 = 0.113	996.25	1545.9	0.7997
308.15 K, m1 = 0.174	997.45	1557.5	0.8432
308.15 K, m1 = 0.2336	998.62	1568.4	0.8857
308.15 K, m1 = 0.2813	999.56	1576.3	0.9199
313.15 K, m1 = 0.0282	992.74	1536.3	0.6725
313.15 K, m1 = 0.0438	993.04	1540	0.6832
313.15 K, m1 = 0.0564	993.27	1542.7	0.6919
313.15 K, m1 = 0.0658	993.45	1544.8	0.6983
313.15 K, m1 = 0.0847	993.81	1548.8	0.7113
313.15 K, m1 = 0.113	994.34	1554.2	0.7308
313.15 K, m1 = 0.174	995.49	1564.7	0.7728
313.15 K, m1 = 0.2336	996.62	1572	0.814
313.15 K, m1 = 0.2813	997.52	1578	0.847

CCCC[P+](CCCC)(CCCC)CCCC.[Cl-] [tetrabutylphosphonium chloride] + O
Conditions	mass density [kg/m3]	speed of sound [m/s]	viscosity [mPa·s]
298.15 K, m1 = 0.0249	996.83	1506.4	0.9234
298.15 K, m1 = 0.0773	996.44	1520	0.9925
298.15 K, m1 = 0.1592	995.93	1541.6	1.101
298.15 K, m1 = 0.2659	995.41	1567.7	1.241
298.15 K, m1 = 0.3842	994.99	1593.7	1.397
298.15 K, m1 = 0.4509	994.8	1607.4	1.486
298.15 K, m1 = 0.504	994.67	1617.5	1.556
298.15 K, m1 = 0.5771	994.5	1630.3	1.652
303.15 K, m1 = 0.0249	995.41	1518.2	0.8256
303.15 K, m1 = 0.0773	994.97	1532.4	0.8843
303.15 K, m1 = 0.1592	994.37	1551.9	0.9761
303.15 K, m1 = 0.2659	993.73	1575.2	1.095
303.15 K, m1 = 0.3842	993.17	1598.2	1.228
303.15 K, m1 = 0.4509	992.9	1610.1	1.302
303.15 K, m1 = 0.504	992.7	1619.5	1.362
303.15 K, m1 = 0.5771	992.42	1633.2	1.444
308.15 K, m1 = 0.0295	993.74	1529.8	0.7476
308.15 K, m1 = 0.0842	993.23	1541.2	0.7998
308.15 K, m1 = 0.1722	992.52	1559.9	0.8836
308.15 K, m1 = 0.2979	991.68	1585.8	1.004
308.15 K, m1 = 0.3554	991.35	1595.6	1.058
308.15 K, m1 = 0.4266	990.98	1607.8	1.126
308.15 K, m1 = 0.4508	990.86	1611.9	1.149
308.15 K, m1 = 0.5619	990.34	1628.9	1.255
313.15 K, m1 = 0.0295	991.9	1537.3	0.6773
313.15 K, m1 = 0.0842	991.36	1547.8	0.722
313.15 K, m1 = 0.1722	990.57	1566.5	0.7937
313.15 K, m1 = 0.2979	989.61	1588.4	0.8964
313.15 K, m1 = 0.3554	989.21	1597.3	0.9432
313.15 K, m1 = 0.4266	988.76	1607.8	1.001
313.15 K, m1 = 0.4508	988.61	1611.4	1.021
313.15 K, m1 = 0.5619	987.95	1627.3	1.112

CC(C)C[P+](C)(CC(C)C)CC(C)C.Cc1ccc(S(=O)(=O)[O-])cc1 [triisobutylmethylphosphonium p-toluenesulfonate] + O
Conditions	mass density [kg/m3]	speed of sound [m/s]	viscosity [mPa·s]
298.15 K, m1 = 0.0237	997.74	1507.2	0.9191
298.15 K, m1 = 0.0468	998.42	1513.7	0.9471
298.15 K, m1 = 0.0663	999	1518.8	0.9707
298.15 K, m1 = 0.0901	999.7	1524.8	0.9996
298.15 K, m1 = 0.1848	1002.5	1546.4	1.115
298.15 K, m1 = 0.2883	1005.48	1566.5	1.241
298.15 K, m1 = 0.3948	1008.42	1586.1	1.373
298.15 K, m1 = 0.4278	1009.28	1592.4	1.413
298.15 K, m1 = 0.478	1010.56	1601.7	1.475
298.15 K, m1 = 0.5156	1011.48	1608.3	1.522
303.15 K, m1 = 0.0237	996.31	1518.8	0.8224
303.15 K, m1 = 0.0468	996.97	1525.3	0.8466
303.15 K, m1 = 0.0663	997.53	1530.8	0.8669
303.15 K, m1 = 0.0901	998.21	1536.6	0.8919
303.15 K, m1 = 0.1848	1000.89	1555.9	0.9914
303.15 K, m1 = 0.2883	1003.76	1574.5	1.101
303.15 K, m1 = 0.3948	1006.58	1590.7	1.214
303.15 K, m1 = 0.4278	1007.42	1596.2	1.249
303.15 K, m1 = 0.478	1008.64	1604	1.302
303.15 K, m1 = 0.5156	1009.52	1609.4	1.343
308.15 K, m1 = 0.0253	994.73	1528.8	0.7415
308.15 K, m1 = 0.053	995.49	1536.4	0.7656
308.15 K, m1 = 0.0791	996.21	1541.7	0.7883
308.15 K, m1 = 0.1003	996.79	1545.6	0.8068
308.15 K, m1 = 0.2056	999.66	1566.2	0.8989
308.15 K, m1 = 0.2689	1001.35	1577.9	0.9546
308.15 K, m1 = 0.3193	1002.66	1587.2	0.999
308.15 K, m1 = 0.3643	1003.8	1592.7	1.039
308.15 K, m1 = 0.4345	1005.51	1602	1.101
308.15 K, m1 = 0.5175	1007.42	1612.8	1.175
313.15 K, m1 = 0.0253	992.9	1538.7	0.6717
313.15 K, m1 = 0.053	993.66	1545.1	0.692
313.15 K, m1 = 0.0791	994.36	1551.5	0.7111
313.15 K, m1 = 0.1003	994.92	1556.3	0.7266
313.15 K, m1 = 0.2056	997.66	1575.1	0.8042
313.15 K, m1 = 0.2689	999.26	1584.7	0.851
313.15 K, m1 = 0.3193	1000.5	1592.3	0.8883
313.15 K, m1 = 0.3643	1001.59	1598.1	0.9218
313.15 K, m1 = 0.4345	1003.25	1607.3	0.9741
313.15 K, m1 = 0.5175	1005.14	1617.1	1.036
